pEC50: −log10 of the molar value.
Columns and labels:
[1] = tested on: neurons from hippocampi of E18 rat embryos; assay: Neurite growth length (% NTL) in cultured E18 rat hippocampal neurons, 9-point dose response, 48 hours; type: cell-based; settings: Rattus norvegicus, Neuron, 48 h; for activity at 0.078 µM: 78 nM; for activity at 0.156 µM: 156 nM; for activity at 0.312 µM: 312 nM; for activity at 0.625 µM: 625 nM
Description: PRE-COATING CULTURE PLATES: On the day before the experiment, 96-well plates were pre-coated by plating 50 μl of Poly-D-lysine solution (PDL, 0.5 mg/mL) in each well. The next morning, the plates were washed four or five times with HBSS or PBS (150 μl/rinse), then left in buffer until cell plating
PREPARING THE CELLS: A timed pregnant rat carrying E18 embryos was euthanized using an IACUC approved method. In a laminar flow hood, the embryos were removed and placed in a petri dish containing Hank's Balanced Salt Solution (HBSS) with 20 mM HEPES, pH 7.3. Pup brains were dissected (see Meberg et al., 2003) and hippocampi were collected in 15 mL a conical tube containing Hibernate E with SM1 (2% v/v).
Dissociation media was prepared by combining 4.5 mL of Hibernate E (without SM1) with 0.5 mL of trypsin and 100 μl of DNAse solution. The medium over the hippocampi was carefully removed and replaced with dissociation solution, then incubated at 37° C. for 15-20 minutes, occasionally swirling the tube.
Using flame polished cotton plugged Pasteur pipettes, the dissociation media was removed, and then 5 mL of Hibernate E containing SM1 were added. The tube was swirled to thoroughly wash the tissue. The tissue was allowed to settle to the bottom of the tube, and the rinse solution was carefully removed. This step was repeated 5 times to dilute out trypsin and DNAse and remove any debris from lysed cells.
The final rinse media was removed from the tube and 1 pipette-full (1-2 mL) of Hibernate E with SM1 was added. Using the flame-polished Pasteur pipette (pre-wetted with rinse media), the tube was triturated until all cells had dissociated and no visible chunks of tissue remained. Fewer than ten triturations were typically performed. The volume was adjusted to 8-12 mL using Hibernate E containing SM1, the well was mixed and cell concentration was determined.
PLATING: The cells were diluted in culture media (NbActiv4 Cell-culture media) to a final concentration of 10,000 cells/mL. The HBSS was aspirated from PDL coated plates, and 150 μL of cell solution was loaded in the middle 48 wells at 1500 cells per well. Water was loaded in the outer wells to decrease evaporation from edge wells. Cells were allowed to adhere for 2 hours in tissue culture incubator prior to treatment.
TREATMENT: Compounds were diluted to various concentrations to provide 9 dose response concentrations of 20 μM, 10 μM, 5, μM, 2.5 μM, 1.25 μM, 0.625 μM, 0.3125 μM, 0.15625 μM, and 0.078125 μM. The plates were cultured for 48 hours, exposed to the compound at the various dose response concentrations.
FIXING THE CULTURES: The culture medium was removed from the plates and immediately replaced with 100-200 μl of warm (37° C.) 4% paraformaldehyde (PFA) solution in phosphate-buffered saline (PBS). The cells were fixed for 15-20 minutes at room temperature, and then rinsed with PBS (200 μl/well×3).
STAINING AND IMAGING: The PBS was removed and replaced with 100 μl of blocking/permeabilization buffer (PBS, 0.2% fish gelatin, 0.03% Triton X-100, 0.02% NaN3), then incubated overnight at 4° C. To this was added 100 μl of primary antibody solution (mouse anti-Beta III tubulin in blocking buffer) and incubate overnight at 4° C. The wells were rinsed with PBS (200 μl×3), which was then removed and replaced with 100 μl of secondary antibody solution (Goat anti-mouse Alexa 488, 10 μg/ml Hoechst 33342, 0.2% fish gelatin, 0.02% azide, in PBS). The plate was shaken gently on a rotating shaker for 2 hours, then rinsed with PBS (200 μl×5).
The plate was imaged using a Cellomics ArrayScan VTI in 2 different channels for nuclear staining (Hoechst) and cell body/neurite staining (βIII-tubulin). Typically, nine fields per well were imaged with a 5× objective and automatically traced by the Neuronal Profiling Bioapplication. To get reproducible results, at least 200-300 valid neurons were measured per condition. […]

[2] = tested on: Primary Neurons; assay: HCS neurite outgrowth assay (High Content Screening with Primary Neurons); type: cell-based; settings: Primary neuron

| SMILES | activity at 0.078 µM [1] [%] | activity at 0.156 µM [1] [%] | activity at 0.312 µM [1] [%] | activity at 0.625 µM [1] [%] | activity at 1.25 µM [1] [%] | activity at 2.5 µM [1] [%] | activity at 5 µM [1] [%] | activity at 10 µM [1] [%] | activity at 20 µM [1] [%] | pEC50 [2] |
| --- | --- | --- | --- | --- | --- | --- | --- | --- | --- | --- |
| O=C(N[C@@H]1CCCC[C@H]1NC(=O)c1ccc(C(=O)c2ccccc2)cc1)c1ccncc1 [Example A19, N-[(1R,2R)-2-(4-benzoylbenzamido)cyclohexyl]pyridine-4-carboxamide] | 90.1 | 93.7 | 68.7 | 75 | 75.7 | 78.5 | 79.4 | 87.4 | 91.2 | 5.65 |
| COc1ccc(OC)c(C(=O)c2ccc(C(=O)N[C@@H]3CCCC[C@H]3NC(=O)c3ccncc3)cc2)c1F [Example A21, N-[(1R,2R)-2-[4-(2-fluoro-3,6-dimethoxybenzoyl)benzamido]cyclohexyl] pyridine-4-carboxamide] | 84.7 | 83.3 | 79.8 | 81.8 | 86.8 | 91.5 | 102 | 107 | 108 | 5.54 |
| COc1ccc(O)c(C(=O)c2ccc(C(=O)N[C@@H]3CCCC[C@H]3NC(=O)c3ccncc3)cc2)c1F [Example A22] | 89.3 | 91.8 | 92.3 | 86.2 | 85.5 | 85.5 | 88.7 | 91.1 | 94.7 | 5.58 |
| O=C(N[C@@H]1CCCCC[C@H]1NC(=O)c1ccc(C(=O)c2ccccc2)cc1)c1ccncc1 [Example A23, N-[(1R,2R)-2-(4-benzoylbenzamido)cycloheptyl]pyridine-4-carboxamide] | 98.3 | 102 | 95.6 | 93.6 | 97 | 101 | 105 | 117 | 144 | 4.77 |
| COc1ccc(OC)c(C(=O)c2ccc(C(=O)N[C@@H]3CCCCC[C@H]3NC(=O)c3ccncc3)cc2)c1F [Example A24, N-[(1R,2R)-2-[4-(2-fluoro-3,6-dimethoxybenzoyl)benzamido]cycloheptyl] pyridine-4-carboxamide] | 96.3 | 96.8 | 93.4 | 96.9 | 91.8 | 101 | 114 | 131 | 169 | 4.79 |
| COc1ccc(O)c(C(=O)c2ccc(C(=O)N[C@@H]3CCCCC[C@H]3NC(=O)c3ccncc3)cc2)c1F [Example A25, N-[(1R,2R)-2-[4-(2-fluoro-6-hydroxy-3-methoxybenzoyl)benzamido]cycloheptyl] pyridine-4-carboxamide] | 98.9 | 97.5 | 110 | 111 | 120 | 122 | 134 | 146 | 163 | < 4.70 |
| COc1ccc(OC)c(C(=O)c2ccc(C(=O)NCCNC(=O)c3ccncc3)cc2)c1F [Example A26, 4-(2-fluoro-3,6-dimethoxybenzoyl)-N-{2-[(pyridin-4-yl)formamido]ethyl}benzamide] | 93.3 | 99.2 | 94.2 | 99.3 | 93.5 | 99.9 | 102 | 97.8 | 117 | < 4.70 |
| COc1ccc(O)c(C(=O)c2ccc(C(=O)NCCNC(=O)c3ccncc3)cc2)c1F [Example A27, 4-(2-fluoro-6-hydroxy-3-methoxybenzoyl)-N-{2-[(pyridin-4-yl)formamido]ethyl}benzamide] | 103 | 101 | 107 | 118 | 110 | 105 | 117 | 141 | 150 | 5.10 |
| COc1ccc(OC)c(C(=O)c2ccc(C(=O)O[C@@H]3CN(C)C[C@H]3NC(=O)c3ccncc3)cc2)c1F [Example A28, (3R,4R)-1-methyl-4-(pyridine-4-amido)pyrrolidin-3-yl 4-(2-fluoro-3,6-dimethoxybenzoyl)benzoate] | 97.8 | 113 | 103 | 83.7 | 103 | 118 | 133 | 137 | 139 | 5.33 |
| COc1ccc(OC)c(C(=O)c2ccc(C(=O)O[C@@H]3CCN(C)C[C@H]3NC(=O)c3ccncc3)cc2)c1F [Example A30, (3R,4R)-1-methyl-3-(pyridine-4-amido)piperidin-4-yl 4-(2-fluoro-3,6-dimethoxybenzoyl)benzoate] | 93.1 | 89.7 | 90.5 | 83.5 | 93.8 | 94.8 | 103 | 107 | 117 | 5.31 |
| COc1ccc(O)c(C(=O)c2ccc(C(=O)O[C@@H]3CCNC[C@H]3NC(=O)c3ccncc3)cc2)c1F [Example A31, (3R,4R)-3-(pyridine-4-amido)piperidin-4-yl 4-(2-fluoro-6-hydroxy-3-methoxybenzoyl)benzoate] | 122 | 120 | 118 | 115 | 136 | 140 | 151 | 142 | 137 | 5.94 |
| COc1ccc(OC)c(C(=O)c2ccc(C(=O)N[C@@H]3CN(C)C[C@H]3NC(=O)c3ccncc3)cc2)c1F [Example A33, N-[(3R,4R)-4-[4-(2-fluoro-3,6-dimethoxybenzoyl)benzamido]-1-methylpyrrolidin-3-yl]pyridine-4-carboxamide] | 108 | 106 | 99.3 | 107 | 115 | 129 | 142 | 159 | 207 | < 4.70 |
| COc1ccc(O)c(C(=O)c2ccc(C(=O)N[C@@H]3CNC[C@H]3NC(=O)c3ccc4c(c3)CC(=O)N4)cc2)c1F [Example A35, N-[(3R,4R)-4-[4-(2-fluoro-6-hydroxy-3-methoxybenzoyl)benzamido]pyrrolidin-3-yl]-2-oxo-2,3-dihydro-1H-indole-5-carboxamide] | 91.8 | 90.1 | 86.3 | 89.3 | 86.9 | 95 | 97.2 | 96.7 | 107 | 6.79 |
